{
  "source": "paper PMC9128007",
  "about": "(ACS Pharmacology & Translational Science, 2022)",
  "origin": "cited, not measured here",
  "test_system": "panel of seven proteases including selected cysteine (3), serine (3), and aspartyl (1) proteases",
  "data": [
    {"smiles": "CC(C)(C)[C@H](NC(=O)C(F)(F)F)C(=O)N1C[C@H]2[C@@H]([C@H]1C(=O)N[C@H](C#N)C[C@@H]1CCNC1=O)C2(C)C", "note": "[Nirmatrelvir]", "values": [
      {"measurement": "activity in a panel of seven proteases", "value": "lack of activity"}
    ]}
  ]
}
